Assay results from ChEMBL document CHEMBL1201862, “PubChem BioAssay data set” (2004).
One block for each compound: values may come before it. Active and inactive are the calls of the source.

Experiments:
Phospholipase D1 = molecular target: T1, Phospholipase D1 (Homo sapiens, UniProt Q13393); assay: cellular phospholipase D1 inhibition IC50 – cell-based, dose response (AID 602151); assay type: functional;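 also: cellular PLD1 assay in Calu-1 cells stimulated with PMA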
T1 sequence (Q13393 whole entry): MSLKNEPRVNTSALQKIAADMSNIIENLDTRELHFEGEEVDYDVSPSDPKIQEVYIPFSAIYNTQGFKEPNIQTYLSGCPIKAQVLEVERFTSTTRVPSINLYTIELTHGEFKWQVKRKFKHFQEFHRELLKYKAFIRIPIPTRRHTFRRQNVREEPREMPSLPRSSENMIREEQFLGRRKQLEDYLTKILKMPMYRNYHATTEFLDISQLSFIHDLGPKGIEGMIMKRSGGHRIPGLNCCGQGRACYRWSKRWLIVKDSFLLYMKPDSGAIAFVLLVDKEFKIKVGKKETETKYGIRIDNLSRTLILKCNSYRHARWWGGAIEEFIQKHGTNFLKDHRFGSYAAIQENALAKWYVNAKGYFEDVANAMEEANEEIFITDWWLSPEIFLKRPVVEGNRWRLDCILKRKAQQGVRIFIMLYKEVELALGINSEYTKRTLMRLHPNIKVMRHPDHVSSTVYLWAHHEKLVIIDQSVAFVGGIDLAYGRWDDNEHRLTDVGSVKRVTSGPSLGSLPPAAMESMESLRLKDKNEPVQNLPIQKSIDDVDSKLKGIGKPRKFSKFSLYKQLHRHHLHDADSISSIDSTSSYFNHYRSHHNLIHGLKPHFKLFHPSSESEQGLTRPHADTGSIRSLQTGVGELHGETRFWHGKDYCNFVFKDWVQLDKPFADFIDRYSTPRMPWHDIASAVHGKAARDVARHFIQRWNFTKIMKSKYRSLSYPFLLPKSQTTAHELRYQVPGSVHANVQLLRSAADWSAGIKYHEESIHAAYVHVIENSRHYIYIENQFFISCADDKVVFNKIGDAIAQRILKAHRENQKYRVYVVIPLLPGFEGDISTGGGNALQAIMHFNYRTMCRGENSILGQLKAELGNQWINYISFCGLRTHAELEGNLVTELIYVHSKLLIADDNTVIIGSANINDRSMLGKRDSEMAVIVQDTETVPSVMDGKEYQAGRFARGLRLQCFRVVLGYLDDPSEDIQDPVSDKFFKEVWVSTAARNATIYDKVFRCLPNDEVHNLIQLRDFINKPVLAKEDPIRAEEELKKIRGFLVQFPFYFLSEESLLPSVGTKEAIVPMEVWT

Phospholipase D2 = Phospholipase D2 (Homo sapiens, UniProt O14939); assay: cellular phospholipase D2 inhibition IC50 – cell-based, dose response (AID 602147); assay type: functional;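 also: cellular assay in HEK293 cells overexpressing GFP-tagged PLD2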
[1] = molecular target: Beta-2 adrenergic receptor (Homo sapiens, UniProt P07550); assay: ADRB2 activation measured by internalization – cell-based, FAP fluorogen, flow cytometry, cherry pick 1, dose response (AID 588763); assay type: functional
[2] = molecular target: T2, RNA-binding protein pos-1 (Caenorhabditis elegans, UniProt G5EF15); assay: disruptors of C. elegans POS-1 RNA interaction – biochemical, fluorescence polarization, dose response (AID 1964);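 also: purified POS-1 fused to maltose binding protein made in E. coli; potency of compounds blocking POS-1 binding to fluorescent RNA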
T2 sequence (G5EF15 whole entry): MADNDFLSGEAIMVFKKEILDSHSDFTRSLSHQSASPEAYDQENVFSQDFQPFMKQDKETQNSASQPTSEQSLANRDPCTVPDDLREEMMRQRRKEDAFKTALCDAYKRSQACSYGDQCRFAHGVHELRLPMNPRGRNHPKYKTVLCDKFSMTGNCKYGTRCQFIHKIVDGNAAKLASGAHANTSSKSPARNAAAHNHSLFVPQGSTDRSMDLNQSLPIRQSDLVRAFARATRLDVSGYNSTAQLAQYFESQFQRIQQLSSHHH

[3] = molecular target: Peroxisome proliferator-activated receptor gamma/Nuclear receptor coactivator 3 (Homo sapiens, UniProt P37231); assay: (§1) TR-FRET dose response biochemical High Throughput Screening assay for agonists of the steroid receptor coactivator 3 (SRC-3) recruitment by the peroxisome proliferator-activated receptor gamma (PPAR gamma): non-selective agonists. [Related pubchem assays: 1301 (Confirmation screen.), 1048 (Primary screen.)]; assay type: functional
[4] = molecular target: Peroxisome proliferator-activated receptor gamma/Nuclear receptor coactivator 1 (Homo sapiens, UniProt P37231); assay: as §1, with “1 (SRC-1)” for “3 (SRC-3)”, “assays (depositor defined):AID1300, AID1808, AID504735, AID631]” for “assays: 1301 (Confirmation screen.), 1048 (Primary screen.)]”; assay type: protein assay
[5] = molecular target: T3, Zinc finger protein mex-5 (Caenorhabditis elegans, UniProt Q9XUB2); assay: potency of MEX-5 RNA-binding blockers – biochemical, C. elegans, fluorescence polarization, dose response (AID 1960)
T3 sequence (Q9XUB2 whole entry): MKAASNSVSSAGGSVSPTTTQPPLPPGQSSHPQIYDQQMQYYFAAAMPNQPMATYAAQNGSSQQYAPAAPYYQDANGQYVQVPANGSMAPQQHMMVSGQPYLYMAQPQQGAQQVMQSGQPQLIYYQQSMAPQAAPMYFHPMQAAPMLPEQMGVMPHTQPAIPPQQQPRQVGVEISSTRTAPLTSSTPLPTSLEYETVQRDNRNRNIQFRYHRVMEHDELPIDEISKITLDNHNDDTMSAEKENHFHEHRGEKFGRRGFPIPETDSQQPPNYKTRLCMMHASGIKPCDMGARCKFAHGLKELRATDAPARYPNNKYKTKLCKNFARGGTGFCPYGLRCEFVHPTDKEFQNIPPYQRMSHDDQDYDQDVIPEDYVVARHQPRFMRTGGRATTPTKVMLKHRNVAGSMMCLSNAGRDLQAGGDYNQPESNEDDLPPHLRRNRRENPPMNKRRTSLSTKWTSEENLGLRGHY

[6] = molecular target: Peroxisome proliferator-activated receptor gamma/Nuclear receptor coactivator 2 (Homo sapiens, UniProt P37231); assay: TR-FRET dose response biochemical High Throughput Screening assay for agonists of the steroid receptor coactivator 2 (SRC-2) recruitment by the peroxisome proliferator-activated receptor gamma (PPAR gamma): non-selective agonists. [Related pubchem assays: 1297, 1032 ]; assay type: functional
[7] = molecular target: T4, Short transient receptor potential channel 4 (Mus musculus, UniProt Q9QUQ5); assay: calcium entry via TRPC4 opening agents – cell-based, HEK293 TRPC4/mu-opioid, Fluo-4 calcium, dose response (AID 434937); assay type: functional
T4 sequence (Q9QUQ5 whole entry): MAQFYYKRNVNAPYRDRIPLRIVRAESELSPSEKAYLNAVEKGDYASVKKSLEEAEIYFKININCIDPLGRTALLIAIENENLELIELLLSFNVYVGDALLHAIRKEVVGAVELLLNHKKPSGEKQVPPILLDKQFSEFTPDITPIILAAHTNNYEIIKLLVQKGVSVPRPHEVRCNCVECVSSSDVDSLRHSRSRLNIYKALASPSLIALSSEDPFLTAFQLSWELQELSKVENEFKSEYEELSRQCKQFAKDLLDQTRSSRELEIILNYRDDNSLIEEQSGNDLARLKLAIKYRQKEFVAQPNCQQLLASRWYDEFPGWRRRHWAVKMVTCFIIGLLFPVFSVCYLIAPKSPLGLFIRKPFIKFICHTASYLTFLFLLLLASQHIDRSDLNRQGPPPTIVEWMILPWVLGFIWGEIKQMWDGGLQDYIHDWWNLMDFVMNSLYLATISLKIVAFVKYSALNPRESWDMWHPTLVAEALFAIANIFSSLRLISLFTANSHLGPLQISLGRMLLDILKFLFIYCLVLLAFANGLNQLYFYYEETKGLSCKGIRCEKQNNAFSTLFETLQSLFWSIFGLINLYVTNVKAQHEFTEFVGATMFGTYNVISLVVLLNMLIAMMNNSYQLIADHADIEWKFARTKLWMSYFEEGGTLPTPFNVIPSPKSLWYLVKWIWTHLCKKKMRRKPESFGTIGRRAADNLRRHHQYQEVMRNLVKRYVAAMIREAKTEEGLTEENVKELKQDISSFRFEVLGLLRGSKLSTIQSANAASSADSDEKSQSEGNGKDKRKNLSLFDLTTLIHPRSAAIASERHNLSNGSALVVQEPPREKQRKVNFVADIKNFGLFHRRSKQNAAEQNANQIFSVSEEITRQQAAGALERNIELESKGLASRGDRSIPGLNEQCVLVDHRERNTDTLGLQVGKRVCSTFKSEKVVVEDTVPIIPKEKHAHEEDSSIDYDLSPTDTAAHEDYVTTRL

Chain of Phospholipase D2 (O14939 whole entry): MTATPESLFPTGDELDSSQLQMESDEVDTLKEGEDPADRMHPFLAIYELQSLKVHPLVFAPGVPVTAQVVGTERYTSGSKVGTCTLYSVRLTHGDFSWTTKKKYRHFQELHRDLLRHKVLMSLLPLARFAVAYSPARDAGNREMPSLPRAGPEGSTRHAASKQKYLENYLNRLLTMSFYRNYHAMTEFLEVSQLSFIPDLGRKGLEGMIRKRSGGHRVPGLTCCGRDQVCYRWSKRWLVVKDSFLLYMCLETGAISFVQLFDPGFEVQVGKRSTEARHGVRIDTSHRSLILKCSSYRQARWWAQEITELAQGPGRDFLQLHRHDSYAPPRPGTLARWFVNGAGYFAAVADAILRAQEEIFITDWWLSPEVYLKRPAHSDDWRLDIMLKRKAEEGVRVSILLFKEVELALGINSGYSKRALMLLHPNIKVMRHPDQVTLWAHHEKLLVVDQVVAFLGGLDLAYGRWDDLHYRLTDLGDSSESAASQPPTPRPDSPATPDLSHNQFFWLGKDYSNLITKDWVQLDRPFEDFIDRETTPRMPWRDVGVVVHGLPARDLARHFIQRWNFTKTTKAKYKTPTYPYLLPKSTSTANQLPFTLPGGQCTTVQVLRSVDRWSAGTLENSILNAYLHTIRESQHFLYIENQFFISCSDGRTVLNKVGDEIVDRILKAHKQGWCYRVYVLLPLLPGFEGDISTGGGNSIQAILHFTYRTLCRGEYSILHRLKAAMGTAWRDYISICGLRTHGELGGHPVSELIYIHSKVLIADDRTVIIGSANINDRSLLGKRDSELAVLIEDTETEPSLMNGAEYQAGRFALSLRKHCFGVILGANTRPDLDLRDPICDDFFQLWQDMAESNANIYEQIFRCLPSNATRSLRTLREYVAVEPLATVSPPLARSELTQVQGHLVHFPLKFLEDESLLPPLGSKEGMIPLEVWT
Chain of Beta-2 adrenergic receptor (P07550 whole entry, the tested form may be a part): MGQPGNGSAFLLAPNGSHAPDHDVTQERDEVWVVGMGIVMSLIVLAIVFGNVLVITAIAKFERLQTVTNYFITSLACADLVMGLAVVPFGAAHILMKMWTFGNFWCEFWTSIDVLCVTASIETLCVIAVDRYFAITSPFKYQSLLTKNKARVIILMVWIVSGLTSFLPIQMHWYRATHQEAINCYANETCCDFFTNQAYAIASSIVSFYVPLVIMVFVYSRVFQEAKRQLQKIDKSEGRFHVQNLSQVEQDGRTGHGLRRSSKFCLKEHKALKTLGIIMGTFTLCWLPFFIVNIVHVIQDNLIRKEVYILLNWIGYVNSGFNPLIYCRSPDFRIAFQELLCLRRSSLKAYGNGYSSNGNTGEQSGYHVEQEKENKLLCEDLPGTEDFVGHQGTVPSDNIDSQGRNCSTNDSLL
Chain of Peroxisome proliferator-activated receptor gamma/Nuclear receptor coactivator 1 (P37231 whole entry): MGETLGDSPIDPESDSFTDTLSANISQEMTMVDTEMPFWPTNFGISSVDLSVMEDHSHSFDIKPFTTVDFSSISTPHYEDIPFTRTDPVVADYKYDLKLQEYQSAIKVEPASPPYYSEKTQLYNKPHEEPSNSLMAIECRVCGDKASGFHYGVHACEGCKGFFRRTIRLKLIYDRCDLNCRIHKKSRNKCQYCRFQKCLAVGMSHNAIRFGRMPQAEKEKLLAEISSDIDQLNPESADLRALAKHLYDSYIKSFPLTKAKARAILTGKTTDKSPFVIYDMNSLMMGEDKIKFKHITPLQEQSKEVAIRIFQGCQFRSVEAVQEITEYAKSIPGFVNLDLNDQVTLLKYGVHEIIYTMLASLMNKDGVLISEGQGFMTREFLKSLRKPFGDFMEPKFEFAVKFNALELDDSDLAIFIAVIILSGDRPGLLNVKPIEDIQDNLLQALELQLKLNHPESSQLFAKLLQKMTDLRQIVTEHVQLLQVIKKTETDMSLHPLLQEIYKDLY
Chain of Peroxisome proliferator-activated receptor gamma/Nuclear receptor coactivator 1 (Q15788 whole entry, further chain): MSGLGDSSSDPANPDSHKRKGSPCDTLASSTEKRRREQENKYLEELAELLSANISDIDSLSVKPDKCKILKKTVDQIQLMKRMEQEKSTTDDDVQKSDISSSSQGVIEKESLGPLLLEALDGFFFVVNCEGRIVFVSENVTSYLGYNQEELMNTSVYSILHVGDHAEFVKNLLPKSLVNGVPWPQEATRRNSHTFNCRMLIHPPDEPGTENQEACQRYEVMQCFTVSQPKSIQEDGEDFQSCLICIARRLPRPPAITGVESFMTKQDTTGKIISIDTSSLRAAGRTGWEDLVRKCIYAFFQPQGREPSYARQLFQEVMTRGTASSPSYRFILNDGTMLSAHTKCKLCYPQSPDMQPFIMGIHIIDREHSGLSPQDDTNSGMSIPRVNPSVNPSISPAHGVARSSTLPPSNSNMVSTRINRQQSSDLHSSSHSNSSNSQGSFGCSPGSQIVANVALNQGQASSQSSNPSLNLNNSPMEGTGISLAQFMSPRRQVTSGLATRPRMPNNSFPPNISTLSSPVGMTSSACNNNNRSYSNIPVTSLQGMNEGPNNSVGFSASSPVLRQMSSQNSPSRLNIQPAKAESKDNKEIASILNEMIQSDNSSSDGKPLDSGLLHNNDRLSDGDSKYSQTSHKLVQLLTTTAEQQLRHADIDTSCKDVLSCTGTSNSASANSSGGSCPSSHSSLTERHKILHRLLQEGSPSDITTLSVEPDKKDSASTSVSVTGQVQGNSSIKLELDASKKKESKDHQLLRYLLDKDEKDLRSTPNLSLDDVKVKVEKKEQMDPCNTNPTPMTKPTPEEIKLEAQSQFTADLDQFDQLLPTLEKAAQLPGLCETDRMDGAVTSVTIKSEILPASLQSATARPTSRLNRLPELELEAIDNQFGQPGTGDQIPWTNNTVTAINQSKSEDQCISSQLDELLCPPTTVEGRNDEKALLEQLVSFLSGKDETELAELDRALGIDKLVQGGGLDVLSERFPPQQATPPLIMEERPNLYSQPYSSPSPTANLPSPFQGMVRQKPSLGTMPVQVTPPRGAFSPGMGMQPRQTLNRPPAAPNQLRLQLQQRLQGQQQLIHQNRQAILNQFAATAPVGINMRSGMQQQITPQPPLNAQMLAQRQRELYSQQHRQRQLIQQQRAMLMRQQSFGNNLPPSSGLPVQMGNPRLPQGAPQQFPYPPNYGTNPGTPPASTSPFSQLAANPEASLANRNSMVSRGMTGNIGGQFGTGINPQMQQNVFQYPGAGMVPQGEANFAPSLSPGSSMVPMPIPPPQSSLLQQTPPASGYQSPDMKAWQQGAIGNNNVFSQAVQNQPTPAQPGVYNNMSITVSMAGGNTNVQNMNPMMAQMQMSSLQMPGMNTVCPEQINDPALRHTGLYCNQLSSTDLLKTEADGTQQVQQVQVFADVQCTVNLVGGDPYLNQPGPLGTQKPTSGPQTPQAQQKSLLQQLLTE

SMILES: C[C@@H](CN1CCC2(CC1)C(=O)NCN2c1ccc(F)c(F)c1)NC(=O)c1cnc2ccccc2c1
IC50 (Phospholipase D1): 0.016 µM (active)
IC50 (Phospholipase D2): 0.076 µM (active)

SMILES: CC(C)[C@@H](CN1CCC2(CC1)C(=O)NCN2c1ccccc1)NC(=O)c1cc2ccccc2[nH]1
IC50 (Phospholipase D1): 0.007 µM (active)
IC50 (Phospholipase D2): 0.029 µM (active)

SMILES: COc1ccc(C2/C=C\CN(Cc3ccc(N(C)C)cc3)CC(=O)N2Cc2ccc(F)cc2)cc1 (configuration not stated)
EC50 [1]: 4.34 µM (active)

SMILES: C[C@@H](CN1CCC(n2c(=O)[nH]c3ccccc32)CC1)NC(=O)c1cccnc1
IC50 (Phospholipase D1): 0.085 µM (active)
IC50 (Phospholipase D2): 14 µM (active)

Second part, the compound after the results:

EC50 [1]: 0.222 µM (active)
SMILES: CCCCOc1cccc(C(=O)Nc2ccc(NC(=O)c3ccco3)cc2)c1

EC50 [2]: 109 µM (active)
EC50 [3]: > 79.4 µM (not active)
EC50 [4]: 19.8 µM (inactive)
EC50 [5]: 216 µM (active)
EC50 [6]: 18.7 µM (not active)
SMILES: COc1ccc(C2C(C(=O)c3ccco3)=C(O)C(=O)N2c2nnc(C)s2)cc1 (configuration not stated)

EC50 [7]: 0.335 µM (active)
SMILES: Cc1nc(NCC(c2ccccc2)N(C)C)c2c(C)c(C)sc2n1 (configuration not stated)

EC50 [3]: > 79.4 µM (not active)
EC50 [4]: 13.3 µM (inactive)
EC50 [6]: 9.39 µM (active)
SMILES: COC(=O)c1c(N=C(S)Nc2ccc(CC(=O)O)cc2)sc(C)c1C
